Patent US9201014B2, “Development of photostable near-IR cyanine dyes for in vivo imaging” (National University of Singapore, priority 2010, dated 2015)

Key:
[1] = Absorbance and fluorescence maximum wavelengths and quantum yields of the CyNA library; assay type: physicochemical; conditions: for λabs, absorbance maximum wavelength / λem, fluorescence maximum wavelength: CyNA library; for φ, quantum yield: in DMSO, Cardiogreen as standard
Method: Since the k values of the different CyNA compounds indicated some dependency on the chemical structure of the amine, the CyNA scaffold was derivatized with a broad range of primary amines (FIGS. 4A-4C). The fluorescence properties of the 80-member CyNA library were measured. The absorption maximum wavelengths ranged from 802 nm to 806 nm, emission maximum wavelengths ranged from 817 nm to 823 nm, and the average quantum yield was approximately 0.10 (Table 2).
All the chemicals (building block amines plus others) and solvents were purchased from Sigma Aldrich, Alfa Aesar, Fluka, MERCK or Acros, and used without further purification. ^1H-NMR and ^13C-NMR spectra were recorded on Bruker Avance 300 NMR and 500 NMR spectrometers, and chemical shifts are expressed in parts per million (ppm). High-resolution mass spectrometry (HRMS) data was recorded on a Micromass VG 7035. Photobleaching experiments were performed using a UVP Blak-Ray® B-100AP high intensity UV lamp (100 W, 365 nm) Spectroscopic and quantum yield data were measured on a SpectraMax M2 spectrophotometer (Molecular Devices), and the data analysis was performed using GraphPrism 5.0. Photobleaching measurements were performed using an Eclipse Ti-U Nikon microscope (filter cube: 750/800) attached to Ti:sappire oscillator that operated in continuous wave mode, and the data was processed using the software NIS-Elements 3.10. In vivo images were taken in an IVIS Spectrum imaging system (Caliper Life Sciences).

[2] = Primary screening of photostability of the CyNA library (time-course fluorescence, 8 h); assay type: physicochemical; parameters: F/Fo, fluorescent intensity at 8 hours vs 0 hours: unit: %; conditions: 10 μM in HEPES 100 mM pH 7.4, 2% DMSO
Method: As a primary evaluation of photo stability, the decrease in fluorescence intensity of the 80 CyNA compounds was measured (see Table 2). The average decrease in fluorescence intensity after 8 hours of irradiation by a xenon lamp was approximately 18%. A subset of the most photostable compounds (i.e., F/Fo reported in Table 2 was greater than or equal to 95) was examined under stronger irradiation in various buffers.
10-μM CyNA solutions in 100 mM HEPES buffer (pH 7.4) containing 2% DMSO were placed in a 96-well black plate, and fluorescence intensity measurements were recorded every 10 minutes for a total period of 8 hours (excitation-emission: 790-820 nm). A subset of fourteen compounds selected according to their F8h/Fo quotients, quantum yields and maximum relative fluorescence units (RFU) values was further evaluated in a secondary screening

Row | SMILES | λabs, absorbance maximum wavelength [1] | λem, fluorescence maximum wavelength [1] | φ, quantum yield [1] | F/Fo, fluorescent intensity at 8 hours vs 0 hours [2] | max RFU, maximum relative fluorescence units [2]
1 | CCCN1/C(=C/C=C2\CCCC(/C=C/C3=[N+](CCC)c4ccccc4C3(C)C)=C2N(Cc2cc(OC)cc(OC)c2)C(C)=O)C(C)(C)c2ccccc21 [CyNA-262] | 803 nm | 822 nm | 0.10 | 81 | 816.5
2 | CCCN1/C(=C/C=C2\CCCC(/C=C/C3=[N+](CCC)c4ccccc4C3(C)C)=C2N(CCc2ccc(OC)c(OC)c2)C(C)=O)C(C)(C)c2ccccc21 [CyNA-266] | 804 nm | 823 nm | 0.08 | 99 | 541.8
3 | CCCN1/C(=C/C=C2\CCCC(/C=C/C3=[N+](CCC)c4ccccc4C3(C)C)=C2N(CCCOC(C)C)C(C)=O)C(C)(C)c2ccccc21 [CyNA-274] | 805 nm | 820 nm | 0.12 | 99 | 1209.5
4 | CCCN1/C(=C/C=C2\CCCC(/C=C/C3=[N+](CCC)c4ccccc4C3(C)C)=C2N(C(C)=O)C(C)CCc2ccccc2)C(C)(C)c2ccccc21 (stereo not shown) [CyNA-275] | 804 nm | 817 nm | 0.14 | 62 | 679.8
5 | CCCN1/C(=C/C=C2\CCCC(/C=C/C3=[N+](CCC)c4ccccc4C3(C)C)=C2N(CCN2CCOCC2)C(C)=O)C(C)(C)c2ccccc21 [CyNA-282] | 805 nm | 819 nm | 0.09 | 90 | 820.1
6 | CCCN1/C(=C/C=C2\CCCC(/C=C/C3=[N+](CCC)c4ccccc4C3(C)C)=C2N(Cc2ccc(OC)c(OC)c2)C(C)=O)C(C)(C)c2ccccc21 [CyNA-319] | 805 nm | 820 nm | 0.06 | 67 | 578.6
7 | CCCN1/C(=C/C=C2\CCCC(/C=C/C3=[N+](CCC)c4ccccc4C3(C)C)=C2N(Cc2ccccc2Br)C(C)=O)C(C)(C)c2ccccc21 [CyNA-329] | 806 nm | 821 nm | 0.10 | 99 | 348.8
8 | CCCN1/C(=C/C=C2\CCCC(/C=C/C3=[N+](CCC)c4ccccc4C3(C)C)=C2N(CCCc2ccccc2)C(C)=O)C(C)(C)c2ccccc21 [CyNA-335] | 804 nm | 821 nm | 0.06 | 50 | 167.9
9 | CCCN1/C(=C/C=C2\CCCC(/C=C/C3=[N+](CCC)c4ccccc4C3(C)C)=C2N(Cc2c(OC)cc(OC)cc2OC)C(C)=O)C(C)(C)c2ccccc21 [CyNA-336] | 804 nm | 820 nm | 0.11 | 85 | 827.7
10 | CCCN1/C(=C/C=C2\CCCC(/C=C/C3=[N+](CCC)c4ccccc4C3(C)C)=C2N(Cc2cccc(Br)c2)C(C)=O)C(C)(C)c2ccccc21 [CyNA-341] | 805 nm | 822 nm | 0.10 | 100 | 259.2
11 | CCCN1/C(=C/C=C2\CCCC(/C=C/C3=[N+](CCC)c4ccccc4C3(C)C)=C2N(CCc2ccc(O)cc2)C(C)=O)C(C)(C)c2ccccc21 [CyNA-346] | 804 nm | 822 nm | 0.07 | 69 | 434.2
12 | CCCN1/C(=C/C=C2\CCCC(/C=C/C3=[N+](CCC)c4ccccc4C3(C)C)=C2N(Cc2cccc(F)c2F)C(C)=O)C(C)(C)c2ccccc21 [CyNA-351] | 805 nm | 818 nm | 0.10 | 52 | 555.4
13 | CCCN1/C(=C/C=C2\CCCC(/C=C/C3=[N+](CCC)c4ccccc4C3(C)C)=C2N(Cc2cc(OC)c(OC)c(OC)c2)C(C)=O)C(C)(C)c2ccccc21 [CyNA-356] | 804 nm | 820 nm | 0.12 | 83 | 892.3
14 | CCCN1/C(=C/C=C2\CCCC(/C=C/C3=[N+](CCC)c4ccccc4C3(C)C)=C2N(Cc2ccc(OC)cc2OC)C(C)=O)C(C)(C)c2ccccc21 [CyNA-358] | 805 nm | 819 nm | 0.14 | 100 | 487.4
15 | CCCN1/C(=C/C=C2\CCCC(/C=C/C3=[N+](CCC)c4ccccc4C3(C)C)=C2N(CCc2ccc([N+](=O)[O-])cc2)C(C)=O)C(C)(C)c2ccccc21 [CyNA-359] | 805 nm | 821 nm | 0.11 | 85 | 527.6
16 | CCCN1/C(=C/C=C2\CCCC(/C=C/C3=[N+](CCC)c4ccccc4C3(C)C)=C2N(Cc2ccccc2Cl)C(C)=O)C(C)(C)c2ccccc21 [CyNA-364] | 804 nm | 821 nm | 0.05 | 98 | 264.8
17 | CCCCN(C(C)=O)C1=C(/C=C/C2=[N+](CCC)c3ccccc3C2(C)C)CCC/C1=C\C=C1\N(CCC)c2ccccc2C1(C)C [CyNA-373] | 805 nm | 820 nm | 0.07 | 76 | 567.2
18 | CCCN1/C(=C/C=C2\CCCC(/C=C/C3=[N+](CCC)c4ccccc4C3(C)C)=C2N(Cc2ccccc2F)C(C)=O)C(C)(C)c2ccccc21 [CyNA-375] | 804 nm | 821 nm | 0.07 | 98 | 533.7
19 | CCCN1/C(=C/C=C2\CCCC(/C=C/C3=[N+](CCC)c4ccccc4C3(C)C)=C2N(CC2CCCCC2)C(C)=O)C(C)(C)c2ccccc21 [CyNA-382] | 804 nm | 820 nm | 0.08 | 85 | 294.6
20 | CCCN1/C(=C/C=C2\CCCC(/C=C/C3=[N+](CCC)c4ccccc4C3(C)C)=C2N(Cc2cccc(OC)c2)C(C)=O)C(C)(C)c2ccccc21 [CyNA-387] | 804 nm | 820 nm | 0.07 | 75 | 739.9
21 | CCCN1/C(=C/C=C2\CCCC(/C=C/C3=[N+](CCC)c4ccccc4C3(C)C)=C2N(Cc2ccccc2OC)C(C)=O)C(C)(C)c2ccccc21 [CyNA-388] | 803 nm | 819 nm | 0.14 | 97 | 1398.5
22 | CCCN1/C(=C/C=C2\CCCC(/C=C/C3=[N+](CCC)c4ccccc4C3(C)C)=C2N(CCc2ccc(OC)cc2)C(C)=O)C(C)(C)c2ccccc21 [CyNA-395] | 804 nm | 820 nm | 0.07 | 95 | 234.3
23 | CCCN1/C(=C/C=C2\CCCC(/C=C/C3=[N+](CCC)c4ccccc4C3(C)C)=C2N(Cc2ccc(C)cc2)C(C)=O)C(C)(C)c2ccccc21 [CyNA-396] | 804 nm | 820 nm | 0.09 | 96 | 736.1
